Experimental data as given in the NIST ThermoML archive (doi:10.1021/je300873x).

Assay: mn = molality of the nth substance listed, in mol/kg
Settings: for surface tension liquid-gas: Pendant drop shape; for electrical conductivity: Liquid, Digital conductivity meter

CCCCCCCCCCCCCC[N+](C)(C)CCO.[Br-] [N-tetradecyl-hydroxyethyl-dimethyl ammonium bromide] + O
Settings	electrical conductivity [S/m]	surface tension liquid-gas [mN/m]
298.15 K, m1 = 0.0003	–	66.02
298.15 K, m1 = 0.0006	–	60.97
298.15 K, m1 = 0.00081	–	58.35
298.15 K, m1 = 0.00101	–	55.52
298.15 K, m1 = 0.00151	–	49.52
298.15 K, m1 = 0.00201	–	45.03
298.15 K, m1 = 0.00252	–	41.15
298.15 K, m1 = 0.00258	0.0207	–
298.15 K, m1 = 0.00268	0.0215	–
298.15 K, m1 = 0.00279	0.0223	–
298.15 K, m1 = 0.00291	0.0232	–
298.15 K, m1 = 0.00302	–	38.35
298.15 K, m1 = 0.00303	0.0241	–
298.15 K, m1 = 0.00317	0.0251	–
298.15 K, m1 = 0.00332	0.0261	–
298.15 K, m1 = 0.00349	0.027	–
298.15 K, m1 = 0.00367	0.0275	–
298.15 K, m1 = 0.00388	0.028	–
298.15 K, m1 = 0.00403	–	37.57
298.15 K, m1 = 0.00411	0.0285	–
298.15 K, m1 = 0.00436	0.029	–
298.15 K, m1 = 0.00465	0.0296	–
298.15 K, m1 = 0.00499	0.0302	–
298.15 K, m1 = 0.00503	–	37.62
298.15 K, m1 = 0.00537	0.0309	–
298.15 K, m1 = 0.00582	0.0318	–
298.15 K, m1 = 0.00604	–	37.61
298.15 K, m1 = 0.00635	0.0328	–
298.15 K, m1 = 0.00698	0.034	–
298.15 K, m1 = 0.00806	–	37.61
303.15 K, m1 = 0.00258	0.0231	–
303.15 K, m1 = 0.00268	0.024	–
303.15 K, m1 = 0.00279	0.0249	–
303.15 K, m1 = 0.0029	0.026	–
303.15 K, m1 = 0.00303	0.0269	–
303.15 K, m1 = 0.00317	0.028	–
303.15 K, m1 = 0.00332	0.0292	–
303.15 K, m1 = 0.00348	0.0303	–
303.15 K, m1 = 0.00367	0.031	–
303.15 K, m1 = 0.00387	0.0316	–
303.15 K, m1 = 0.0041	0.0322	–
303.15 K, m1 = 0.00436	0.0328	–
303.15 K, m1 = 0.00465	0.0335	–
303.15 K, m1 = 0.00498	0.0342	–
303.15 K, m1 = 0.00536	0.035	–
303.15 K, m1 = 0.00581	0.036	–
303.15 K, m1 = 0.00634	0.0372	–
303.15 K, m1 = 0.00697	0.0385	–
308.15 K, m1 = 0.00258	0.0254	–
308.15 K, m1 = 0.00268	0.0263	–
308.15 K, m1 = 0.00278	0.0274	–
308.15 K, m1 = 0.0029	0.0283	–
308.15 K, m1 = 0.00303	0.0295	–
308.15 K, m1 = 0.00316	0.0308	–
308.15 K, m1 = 0.00331	0.0321	–
308.15 K, m1 = 0.00348	0.0334	–
308.15 K, m1 = 0.00366	0.0346	–
308.15 K, m1 = 0.00387	0.0352	–
308.15 K, m1 = 0.00409	0.0359	–
308.15 K, m1 = 0.00435	0.0366	–
308.15 K, m1 = 0.00464	0.0374	–
308.15 K, m1 = 0.00497	0.0383	–
308.15 K, m1 = 0.00535	0.0393	–
308.15 K, m1 = 0.0058	0.0404	–
308.15 K, m1 = 0.00633	0.0418	–
308.15 K, m1 = 0.00696	0.0435	–
313.15 K, m1 = 0.00257	0.0278	–
313.15 K, m1 = 0.00267	0.0287	–
313.15 K, m1 = 0.00278	0.0298	–
313.15 K, m1 = 0.00289	0.0311	–
313.15 K, m1 = 0.00302	0.0325	–
313.15 K, m1 = 0.00316	0.0339	–
313.15 K, m1 = 0.00331	0.0354	–
313.15 K, m1 = 0.00347	0.037	–
313.15 K, m1 = 0.00366	0.0385	–
313.15 K, m1 = 0.00386	0.0395	–
313.15 K, m1 = 0.00409	0.0405	–
313.15 K, m1 = 0.00434	0.0414	–
313.15 K, m1 = 0.00463	0.0421	–
313.15 K, m1 = 0.00496	0.0431	–
313.15 K, m1 = 0.00534	0.0441	–
313.15 K, m1 = 0.00579	0.0455	–
313.15 K, m1 = 0.00631	0.0472	–
313.15 K, m1 = 0.00695	0.0491	–
318.15 K, m1 = 0.00257	0.0307	–
318.15 K, m1 = 0.00267	0.0317	–
318.15 K, m1 = 0.00277	0.0329	–
318.15 K, m1 = 0.00289	0.0343	–
318.15 K, m1 = 0.00301	0.0356	–
318.15 K, m1 = 0.00315	0.037	–
318.15 K, m1 = 0.0033	0.0385	–
318.15 K, m1 = 0.00347	0.0407	–
318.15 K, m1 = 0.00365	0.0426	–
318.15 K, m1 = 0.00385	0.044	–
318.15 K, m1 = 0.00408	0.0454	–
318.15 K, m1 = 0.00433	0.0465	–
318.15 K, m1 = 0.00462	0.0475	–
318.15 K, m1 = 0.00495	0.0488	–
318.15 K, m1 = 0.00533	0.0499	–
318.15 K, m1 = 0.00578	0.0514	–
318.15 K, m1 = 0.0063	0.0531	–
318.15 K, m1 = 0.00693	0.0552	–
323.15 K, m1 = 0.00256	0.0332	–
323.15 K, m1 = 0.00266	0.0345	–
323.15 K, m1 = 0.00277	0.0357	–
323.15 K, m1 = 0.00288	0.0372	–
323.15 K, m1 = 0.00301	0.0389	–
323.15 K, m1 = 0.00314	0.0404	–
323.15 K, m1 = 0.00329	0.0423	–
323.15 K, m1 = 0.00346	0.0442	–
323.15 K, m1 = 0.00364	0.0465	–
323.15 K, m1 = 0.00384	0.0487	–
323.15 K, m1 = 0.00407	0.0506	–
323.15 K, m1 = 0.00432	0.0522	–
323.15 K, m1 = 0.00461	0.0535	–
323.15 K, m1 = 0.00494	0.0547	–
323.15 K, m1 = 0.00532	0.0563	–
323.15 K, m1 = 0.00576	0.0581	–
323.15 K, m1 = 0.00629	0.0598	–
323.15 K, m1 = 0.00692	0.062	–
